Laboratory results: patent US8912180B2, “Heterocyclic compound” (Astellas Pharma Inc., priority 2010, dated 2014)
Where a name gives a salt, the structure may show the parent alone.

Legend:
[1] = tested on: Spleen cells prepared from male LEW/CrlCrlj rats (B cell proliferation); test: Rat B cell proliferation inhibition test (anti-rat IgM, [3H]thymidine); type: cell-based; settings: anti-rat IgM 3 μg/well, 48 hours culture
Experimental: 4. Rat B Cell Proliferation Inhibition Test
Spleen cells (1.0×10^5 cells/well) prepared from male LEW/CrlCrlj rats (Charles River Laboratories, Japan, Inc.), mouse F(ab′)2 fragment anti-rat IgM (3 μg/well, SouthernBiotech Associates, Inc., Catalogue No. 3082-14) and the test compound dissolved in DMSO (final DMSO concentration 0.1%) were mixed in a 96-well plate using a 10% FCS-containing RPMI-1640 culture medium (total 200 μL). They were cultured in a CO2 incubator for 48 hours and [^3H]thymidine (925 GBq/mmol, Moravek Biochemicals, Inc., Catalogue No. MT6038) was added thereto at 0.037 MBq/well at 4 hours before completion of culture. Cells were harvested in a GF/C glass filter using a cell harvester, and a radioactivity on the filter was measured using a liquid scintillation counter.

Human PI3Kα = target: T1, Human PI3Kα (Homo sapiens, UniProt P42336); test: PI3Kα enzyme inhibitory activity (Kinase-Glo Plus luminescence); type: biochemical; settings: human PI3Kα 12 ng/well, phosphatidylinositol 0.2 μg/well, 37° C. 3 hours
T1 construct: purchased Millipore Corporation 14-602
T1 sequence (P42336 whole entry): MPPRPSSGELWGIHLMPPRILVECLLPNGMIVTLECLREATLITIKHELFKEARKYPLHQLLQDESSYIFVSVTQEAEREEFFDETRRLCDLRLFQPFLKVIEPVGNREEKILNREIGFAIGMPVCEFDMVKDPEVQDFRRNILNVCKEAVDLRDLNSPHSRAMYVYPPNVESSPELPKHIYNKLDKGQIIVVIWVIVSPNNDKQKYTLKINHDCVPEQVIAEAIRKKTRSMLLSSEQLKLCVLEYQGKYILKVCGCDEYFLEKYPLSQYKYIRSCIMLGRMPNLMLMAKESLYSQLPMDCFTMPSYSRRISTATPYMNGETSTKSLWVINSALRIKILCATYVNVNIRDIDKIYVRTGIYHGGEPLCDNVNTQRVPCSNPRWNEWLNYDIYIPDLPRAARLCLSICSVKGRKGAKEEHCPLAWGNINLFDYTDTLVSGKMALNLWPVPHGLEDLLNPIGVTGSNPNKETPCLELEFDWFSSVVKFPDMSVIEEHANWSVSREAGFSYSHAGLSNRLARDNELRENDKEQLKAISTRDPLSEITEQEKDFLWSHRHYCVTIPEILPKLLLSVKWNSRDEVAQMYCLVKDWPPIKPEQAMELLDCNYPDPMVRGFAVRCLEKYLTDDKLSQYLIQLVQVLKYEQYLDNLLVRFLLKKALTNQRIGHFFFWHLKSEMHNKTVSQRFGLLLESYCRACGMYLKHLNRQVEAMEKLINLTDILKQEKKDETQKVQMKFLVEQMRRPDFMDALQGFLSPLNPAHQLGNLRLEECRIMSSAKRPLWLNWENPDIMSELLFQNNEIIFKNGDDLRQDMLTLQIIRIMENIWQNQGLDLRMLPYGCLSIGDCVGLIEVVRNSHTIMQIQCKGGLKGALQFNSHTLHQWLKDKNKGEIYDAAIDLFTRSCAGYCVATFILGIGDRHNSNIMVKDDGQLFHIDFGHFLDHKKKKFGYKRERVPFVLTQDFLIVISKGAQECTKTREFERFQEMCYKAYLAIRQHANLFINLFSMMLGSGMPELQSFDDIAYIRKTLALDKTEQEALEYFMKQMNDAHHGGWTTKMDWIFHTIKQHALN
T1 sequence (P27986 whole entry partner): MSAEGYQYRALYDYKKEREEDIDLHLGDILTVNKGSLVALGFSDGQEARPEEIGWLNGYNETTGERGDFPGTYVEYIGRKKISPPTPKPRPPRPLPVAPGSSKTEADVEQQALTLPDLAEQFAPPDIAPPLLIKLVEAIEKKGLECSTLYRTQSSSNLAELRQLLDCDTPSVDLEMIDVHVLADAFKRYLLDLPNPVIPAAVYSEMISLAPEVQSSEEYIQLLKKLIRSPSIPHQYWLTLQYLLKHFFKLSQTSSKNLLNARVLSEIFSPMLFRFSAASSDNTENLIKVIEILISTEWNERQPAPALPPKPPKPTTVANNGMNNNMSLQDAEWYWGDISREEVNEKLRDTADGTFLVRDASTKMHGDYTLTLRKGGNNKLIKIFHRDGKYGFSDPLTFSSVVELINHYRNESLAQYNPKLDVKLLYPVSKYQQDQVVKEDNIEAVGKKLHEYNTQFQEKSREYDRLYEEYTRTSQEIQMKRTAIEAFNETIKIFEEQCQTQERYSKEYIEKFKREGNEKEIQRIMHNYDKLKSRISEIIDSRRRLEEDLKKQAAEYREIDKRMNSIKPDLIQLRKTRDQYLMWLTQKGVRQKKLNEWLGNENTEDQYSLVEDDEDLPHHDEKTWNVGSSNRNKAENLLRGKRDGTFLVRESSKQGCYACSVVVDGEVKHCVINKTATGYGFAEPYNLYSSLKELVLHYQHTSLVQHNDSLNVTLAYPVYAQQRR
Experimental: 2. PI3Kα Enzyme Inhibitory Activity
Human PI3Kα (12 ng/well, Millipore Corporation, Catalogue No. 14-602), phosphatidylinositol (0.2 μg/well), and the test compound were mixed in a 384-well plate in a reaction buffer (50 mM Hepes, 10 mM NaCl, 10 mM MgCl2, 2 mM EGTA, 2 mM DTT, pH 7.3) (total 10 μl), and incubated at 37° C. for 3 hours. After the reaction, 10 μL of a Kinase-Glo Plus reagent (Promega, Catalogue No. V3772) was added thereto, and a luminescence was measured with a luminometer.

human PI3Kδ enzyme = target: T2, human PI3Kδ enzyme (Homo sapiens, UniProt O00329); test: PI3Kδ enzyme inhibitory activity (PI3-Kinase HTRF Assay kit); type: biochemical; settings: human PI3Kδ 10 ng/well, ATP 30 μM, PIP2 10 μM, room temperature 30 minutes
T2 construct: purchased Millipore Corporation 14-604
T2 sequence (O00329 whole entry): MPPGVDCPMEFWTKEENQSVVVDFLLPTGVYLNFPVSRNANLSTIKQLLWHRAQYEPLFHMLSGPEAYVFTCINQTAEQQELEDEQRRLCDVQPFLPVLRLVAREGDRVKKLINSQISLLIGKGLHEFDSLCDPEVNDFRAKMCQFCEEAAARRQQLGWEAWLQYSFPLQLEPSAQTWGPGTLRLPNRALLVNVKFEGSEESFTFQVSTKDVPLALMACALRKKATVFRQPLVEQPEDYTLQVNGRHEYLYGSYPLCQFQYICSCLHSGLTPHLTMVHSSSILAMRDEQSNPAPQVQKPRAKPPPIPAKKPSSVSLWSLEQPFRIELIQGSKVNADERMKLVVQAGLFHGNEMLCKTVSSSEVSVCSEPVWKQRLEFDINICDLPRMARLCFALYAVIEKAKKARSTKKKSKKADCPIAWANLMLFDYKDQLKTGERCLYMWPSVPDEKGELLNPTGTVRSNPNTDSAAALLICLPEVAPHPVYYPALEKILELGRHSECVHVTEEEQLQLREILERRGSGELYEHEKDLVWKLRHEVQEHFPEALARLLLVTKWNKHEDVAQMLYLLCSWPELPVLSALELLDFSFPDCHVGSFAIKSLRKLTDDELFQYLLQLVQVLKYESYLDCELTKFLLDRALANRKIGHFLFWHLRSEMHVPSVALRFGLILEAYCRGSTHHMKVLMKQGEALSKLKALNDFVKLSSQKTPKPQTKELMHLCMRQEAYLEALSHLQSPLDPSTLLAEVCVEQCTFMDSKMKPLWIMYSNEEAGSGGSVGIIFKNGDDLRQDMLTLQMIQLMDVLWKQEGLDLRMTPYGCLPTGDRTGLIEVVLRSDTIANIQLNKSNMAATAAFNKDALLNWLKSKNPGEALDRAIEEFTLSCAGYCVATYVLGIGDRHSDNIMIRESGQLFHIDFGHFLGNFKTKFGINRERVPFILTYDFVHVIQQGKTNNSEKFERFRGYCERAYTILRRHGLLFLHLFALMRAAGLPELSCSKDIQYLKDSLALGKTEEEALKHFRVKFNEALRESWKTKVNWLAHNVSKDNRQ
T2 sequence (P27986 whole entry partner): as the sequence (P27986 whole entry partner) above
Experimental: 1. PI3Kδ Enzyme Inhibitory Activity
For the experiment, a PI3-Kinase HTRF Assay kit (Millipore Corporation, Catalogue No. 33-016) and a human PI3Kδ enzyme (Millipore Corporation, Catalogue No. 14-604) were used. The measurement method was in accordance with the appended instructions. The overview thereof is as follows.
PI3Kδ (10 ng/well), phosphatidylinositol-4,5-bisphosphate (10 μM), ATP (30 μM), and the test compound were mixed in a 384-well plate (total 20 μL), and incubated at room temperature for 30 minutes. EDTA and biotinylated phosphatidylinositol-3,4,5-triphosphate were added thereto to stop the reaction. Thereafter, a Europium labeled anti-GST antibody, a GST bond GRP1 PH domain, and streptavidin-APC were added thereto, followed by incubation overnight. An HTRF ratio was measured using an HTRF plate reader.

| SMILES | IC50 [1] [nM] | IC50 (Human PI3Kα) [µM] | IC50 (human PI3Kδ enzyme) [nM] |
| --- | --- | --- | --- |
| O=C([C@H]1CCCO1)N1CC[C@H](Nc2cc(-n3c(C(F)F)nc4ccccc43)nc(N3CCOCC3)n2)C1 [A290] | 2.2 | 3.8 | 7.4 |
| O=C(C1CCOCC1)N1CC[C@H](Nc2cc(-n3c(C(F)F)nc4ccccc43)nc(N3CCOCC3)n2)C1 [A293] | 2.6 | 3.2 | 19 |
| COC(=O)N1CCC(C(=O)N2CC[C@H](Nc3cc(-n4c(C(F)F)nc5ccccc54)nc(N4CCOCC4)n3)C2)CC1 [A298] | 1.2 | 3.5 | 28 |
| O=C(CC1CCCO1)N1CC[C@H](Nc2cc(-n3c(C(F)F)nc4ccccc43)nc(N3CCOCC3)n2)C1 (stereo partly drawn) [A299] | 2.5 | 4.9 | 25 |
| O=C(CC1CCOCC1)N1CC[C@H](Nc2cc(-n3c(C(F)F)nc4ccccc43)nc(N3CCOCC3)n2)C1 [A300] | 2.6 | 6.5 | 26 |
| O=C(C1CCOC1)N1CC[C@H](Oc2cc(-n3c(C(F)F)nc4ccccc43)nc(N3CCOCC3)n2)C1 (stereo partly drawn) [A449] | 0.4 | 1.4 | 20 |
| CN1CC(C(=O)N2CC[C@H](Oc3cc(-n4c(C(F)F)nc5ccccc54)nc(N4CCOCC4)n3)C2)CC1=O (stereo partly drawn) [A451] | 1.2 | 2.2 | 35 |
| CC(=O)N1CCC(CC(=O)N2CC[C@H](Nc3cc(-n4c(C(F)F)nc5ccccc54)nc(N4CCOCC4)n3)C2)CC1 [A463] | 1.4 | 3.1 | 27 |
| O=C(C1CCOC1)N1CC[C@H](Nc2cc(-n3c(C(F)F)nc4ccccc43)nc(N3CCOCC3)n2)C1 (stereo partly drawn) [A464] | – | 2.2 | 10 |
| CN1CC(C(=O)N2CC[C@H](Nc3cc(-n4c(C(F)F)nc5ccccc54)nc(N4CCOCC4)n3)C2)CC1=O (stereo partly drawn) [A466] | 1.8 | 2 | 15 |
| O=C(CN1CCCCC1)N1CC[C@H](Nc2cc(-n3c(C(F)F)nc4ccccc43)nc(N3CCOCC3)n2)C1 [A475] | 1.1 | 1.4 | 25 |
| O=C1CC[C@@H](C(=O)N2CC(Nc3cc(-n4c(C(F)F)nc5ccccc54)nc(N4CCOCC4)n3)C2)N1 [A562] | 3.9 | 2.9 | 14 |
| CC(=O)N1CCC(CC(=O)N2CC(Nc3cc(-n4c(C(F)F)nc5ccccc54)nc(N4CCOCC4)n3)C2)CC1 [A564] | 2.2 | – | 19 |
| CC(C)(C)OC(=O)N1CC[C@H](Nc2nc(N3CCOCC3)cc(-n3c(C(F)F)nc4ccccc43)n2)C1 [Example 1, tert-butyl (3S)-3-({4-[2-(difluoromethyl)-1H-benzimidazol-1-yl]-6-morpholin-4-ylpyrimidin-2-yl}amino)pyrrolidine-1-carboxylate] | – | 2.8 | 29 |
| CN1CCC(CNc2cc(-n3c(C(F)F)nc4ccccc43)nc(N3CCOCC3)n2)CC1 [Example 4] | – | > 3 | 60 |
| C[C@H]1COCCN1c1cc(-n2c(C(F)F)nc3ccccc32)nc(NCC2CCN(C(=O)OC(C)(C)C)CC2)n1 [Example 13] | – | 0.98 | 36 |
| CC(C)(C)OC(=O)N1CCC(CNc2nc(N3CCOC[C@@H]3CF)cc(-n3c(C(F)F)nc4ccccc43)n2)CC1 [Example 16] | – | > 10 | 69 |
| CC(C)(C)OC(=O)N1CCC[C@H](CNc2nc(N3CCOCC3)cc(-n3c(C(F)F)nc4ccccc43)n2)C1 [Example 18] | – | 7.7 | 50 |
| C[C@H]1COCCN1c1cc(-n2c(C(F)F)nc3ccccc32)nc(NC[C@H]2CCCN(C(=O)OC(C)(C)C)C2)n1 [Example 20] | – | 1.8 | 19 |
| FC(F)c1nc2ccccc2n1-c1cc(N2CCOCC2)nc(NCCC2CCN(Cc3ccccc3)CC2)n1 [Example 25] | – | 6.2 | 69 |
| OC1CCC(N2CCC(CNc3nc(N4CCOCC4)cc(-n4c(C(F)F)nc5ccccc54)n3)CC2)CC1 (stereo not drawn) [Example 28] | – | > 3 | 35 |

| SMILES | IC50 [1] [nM] | IC50 (Human PI3Kα) [µM] | IC50 (human PI3Kδ enzyme) [nM] |
| --- | --- | --- | --- |
| CC(C)(C)OC(=O)N1CCC(N2CCC(CNc3nc(N4CCOCC4)cc(-n4c(C(F)F)nc5ccccc54)n3)CC2)CC1 [Example 30] | – | > 3 | 12 |
| FCC(CF)N1CCC(CNc2nc(N3CCOCC3)cc(-n3c(C(F)F)nc4ccccc43)n2)CC1 [Example 35] | – | 4.2 | 18 |
| FC(F)c1nc2ccccc2n1-c1cc(N2CCOCC2)nc(NCC2CCN(C3CCC(F)(F)CC3)CC2)n1 [Example 36] | 6.8 | 6.7 | 17 |
| C[C@H]1COCCN1c1cc(-n2c(C(F)F)nc3ccccc32)nc(NCC2CCN(C3CCOCC3)CC2)n1 [Example 38] | 2.9 | 2.2 | 23 |
| FC(F)c1nc2ccccc2n1-c1cc(N2CCOCC2)nc(NCC2CCN(CC3CCOCC3)CC2)n1 [Example 39] | – | 3.9 | 27 |
| FC(F)c1nc2ccccc2n1-c1cc(OCC2CCN(C3CCOCC3)CC2)nc(N2CCOCC2)n1 [Example 40] | 9 | > 10 | 20 |
| FC(F)c1nc2ccccc2n1-c1cc(N2CCOCC2)nc(NCC2CCN([C@H]3CC[C@@H](F)CC3)CC2)n1 [Example 43-2, 4-[2-(difluoromethyl)-1H-benzimidazol-1-yl]-N-{[1-(cis-4-fluorocyclohexyl)piperidin-4-yl]methyl}-6-(morpholin-4-yl)pyrimidin-2-amine dihydrochloride] | 3.1 | 8 | 8.6 |
| FC(F)c1nc2ccccc2n1-c1cc(N2CCOCC2)nc(NCC2CCN(c3ccccc3)CC2)n1 [Example 44, 4-[2-(difluoromethyl)-1H-benzimidazol-1-yl]-6-(morpholin-4-yl)-N-[(1-phenylpiperidin-4-yl)methyl]pyrimidin-2-amine dihydrochloride] | – | 5 | 14 |
| CN(C)CCN1CC[C@H](Nc2nc(N3CCOCC3)cc(-n3c(C(F)F)nc4ccccc43)n2)C1 [Example 45, 4-[2-(difluoromethyl)-1H-benzimidazol-1-yl]-N-{(3S)-1-[2-(dimethylamino)ethyl]pyrrolidin-3-yl}-6-morpholin-4-ylpyrimidin-2-amine dihydrochloride] | – | 6.8 | 56 |
| CN(C)CC(=O)N1CCC(CNc2nc(N3CCOCC3)nc(-n3c(C(F)F)nc4ccccc43)n2)CC1 [Example 67] | – | 0.99 | 47 |
| CN(C)CC(=O)N1CC(Nc2nc(N3CCOCC3)cc(-n3c(C(F)F)nc4ccccc43)n2)C1 [Example 69] | – | – | 22 |
| Fc1ccc(N2CCC(CNc3nc(N4CCOCC4)cc(-n4c(C(F)F)nc5ccccc54)n3)CC2)cc1 [Example 75] | – | 5.4 | 25 |
| Fc1ccccc1N1CCC(CNc2nc(N3CCOCC3)cc(-n3c(C(F)F)nc4ccccc43)n2)CC1 [Example 77] | – | 5.4 | 18 |
| COc1ccc(N2CCC(CNc3nc(N4CCOCC4)cc(-n4c(C(F)F)nc5ccccc54)n3)CC2)cc1 [Example 78] | – | 2.9 | 8.5 |
| CN(C)CC(=O)N[C@H]1CCC[C@H](Nc2cc(-n3c(C(F)F)nc4ccccc43)nc(N3CCOCC3)n2)C1 [Example 100] | – | > 3 | 5.7 |
| FC(F)c1nc2ccccc2n1-c1cc(N2CCOCC2)nc(NCC23CCC(N4CCOCC4)(CC2)CC3)n1 [Example 120] | – | 6.4 | 27 |
| FC(F)c1nc2ccccc2n1-c1cc(N[C@H]2CCC[C@@H](N3CCOCC3)C2)nc(N2CCOCC2)n1 [Example 123] | – | > 3 | 4.5 |
| O=C(CNCC1CC1)N[C@H]1CC[C@H](Oc2cc(-n3c(C(F)F)nc4ccccc43)nc(N3CCOCC3)n2)CC1 [Example 133] | – | 5.9 | 5.2 |
| C[C@@H]1C[C@H](N2CCC(CNc3nc(N4CCOCC4)cc(-n4c(C(F)F)nc5ccccc54)n3)CC2)C[C@H](C)O1 [Example 194] | – | 3.3 | 5.8 |
| COC(=O)N[C@@H]1CCN([C@H]2CC[C@H](Nc3cc(-n4c(C(F)F)nc5ccccc54)nc(N4CCOCC4)n3)CC2)C1=O [Example 371] | – | 5 | 35 |
